# Where two headings read alike, the source gives them in different places.
# Experiments:
# [1] = test system: HCV replicon cell line AVA5 [sub-genomic (CON1), genotype 1b]; experiment: 3-day HCV replicon antiviral assay (blot hybridization of intracellular HCV RNA), alone and with sofosbuvir; type: cell-based; conditions: Hepatitis C virus, Ava5, 72 h, read-out: IC50 (intracellular HCV RNA)
# [2] = test system: HCV RNA; experiment: Part B (MAD): antiviral response (HCV RNA viral load) in treatment naive subjects with chronic HCV infection; type: in vivo, human
# Source text: Part B was a blinded, randomized, placebo-controlled MAD study consisting of four cohorts of eight subjects randomized 6:2 to receive Formula (IIa) or placebo. A total of 30 treatment naïve subjects with CHC infection were enrolled in and a total of 29 subjects (22 subjects administered Formula (IIa) and 7 subjects administered placebo) completed Part B of the study. One subject administered placebo withdrew from the study on Day 2. Subjects infected with HCV-1 and HCV-3 genotypes were enrolled, and no subjects infected with HCV-2 participated in the study. To control for the possible effect of the IL28b genotype, the number of subjects with CC alleles was capped at three per cohort.
# The starting dose was determined by the SRC based on review of all safety and any available PK/PD data from Part A. All subjects were dosed in the fasted state with Formula (IIa) daily, from Day 1 until […]. All subjects had nothing by mouth other than water for at least 10 hours prior to daily dosing and for 4 hours thereafter. In Part B, all subjects were administered the study medication orally with approximately 240 mL of water at the same time every day (+/−10 minutes).
# A subset of blood samples shown in Table 3 above was used for the PK evaluation of plasma trough concentrations (Table 4). […]
# [3] = test system: HCV from sera of patients infected with resistant strains; experiment: Capture fusion assay: THP-1 cells infected with patient serum, fused with Huh7.5, HCV RNA by PCR; type: cell-based; conditions: for IC50: Hepatitis C virus
# Experimental: Serum samples were taken from 30 patients who had either responded to or previously failed treatment with combination peg-interferon/ribavirin and a direct acting antiviral (DAA), e.g., sofosbuvir and ledipasvir, or DAA treatment alone (FIG. 16). The anti-HCV activity of Formula (IIa) was assessed using the capture fusion assay. Briefly, pre-stimulated THP-1 cells were infected with serum from donors chronically infected with the common HCV genotypes G1 or G3, or from patients infected with the less prevalent G2, G4 or G6 HCV. The hybrid cells were treated once with a range of concentrations of Formula (IIa). For comparison, fused cells infected with G1 and G3 sera were treated with telaprevir or alisporivir. The cells were cultured for 5 days, before quantification of HCV RNA by PCR. Dose-response curves were used to calculate IC50 values for each experiment. The detailed assay protocol is outlined below.
# Huh7.5 and Huh7 cells were maintained in Dulbecco's modified Eagle medium with glutamine supplemented with 10% fetal calf serum and 1% penicillin/streptomycin (DMEM/10% FCS/PS). THP-1 cells were maintained in RPMI with glutamine supplemented with 10% fetal calf serum and 1% penicillin/streptomycin (RPMI/10% FCS/PS). Peripheral blood mononuclear cells (PBMC) and sera were obtained from patients with chronic HCV infection, with informed consent. Cytokines used were phorbol 12-myristate 13-acetate (PMA, Sigma-Aldrich, Dorset, UK), IFNγ (Invitrogen, Paisley, UK) and osteopontin (R&D Systems, Abingdon, UK). Primary antibodies used were anti-albumin (Dako, Glostrup, Denmark), anti-CD81 (BD Biosciences, Oxford, UK), anti-SR-B1 (Novus Biologicals, Cambridge, UK), anti-CD32 and anti-CD64 (Abcam, Cambridge, UK). Mouse IgG1 isotype control was purchased from Biolegend UK (London, UK). Fluorescent secondary antibodies AlexaFluor488 and 594 anti-sheep, anti-mouse and anti-rabbit IgG were purchased from Invitrogen.
# PBMCs were separated from whole blood by centrifugation on Ficoll-Paque. The PBMC layer was washed twice before positive selection of CD14+ cells by magnetic separation. Huh7.5 cells were trypsinized and combined with CD14+ cells at a 1:1 ratio. After removal of all supernatant, the cell pellet was slowly resuspended in prewarmed polyethylene glycol 1500 (Roche Diagnostics, Burgess Hill, UK). After incubation at 37° C. for 2 minutes, prewarmed medium (DMEM/10% FCS/PS) was added dropwise and the cells washed by centrifugation. The fused cells were seeded into 6 well plates at a density of 5×10^5 cells/mL and maintained at 37° C. until RNA extraction.
# THP-1 cells were seeded into 6 well plates at a density of 10^6 cells/mL and maintained in RPMI supplemented with 10% fetal calf serum and 1% penicillin/streptomycin (RPMI/10% FCS/1% PS) for 18 hours, with or without the addition of cytokines. The cells were washed three times and the medium replaced with RPMI/2% FCS and patient serum at a ratio of 1 HCV copy per cell. For antibody blocking experiments, cells were incubated with blocking antibody at 37° C. for one hour before addition of patient serum. After incubation at 37° C. for 18-24 hours, the supernatant was removed and cells were washed three times. Adherent cells were removed using a cell scraper and Huh7.5 cells added at a 1:1 ratio. Cell fusion was performed as described above. The fused cells were seeded into 6 well plates at a density of 10^5 cells/mL and maintained at 37° C. in the presence or absence of antiviral drugs for up to 7 days. In selected experiments, supernatants were pooled from non-drug treated wells and concentrated on a sucrose gradient. In brief, the pooled supernatants were filtered through a 0.45 μm filter then 10 mL of each was layered on 4 mL 20% sucrose. The supernatants were centrifuged at 24,000×g for 2 hours and the resulting pellet resuspended in 1 mL RPMI. […]
compound,measurement,setting,value
CO[C@H]1C(OP(=O)(OC[C@H]2O[C@@H](n3cnc4c(N)ncnc43)CC2O)SCOC(=O)OC(C)C)[C@@H](CO)O[C@H]1n1ccc(=O)[nH]c1=O (stereo partly shown) [Formula (IIa)],IC50,[1],31.7 nM
same,Peak individual viral load drop,[2]; 200 mg Formula (IIa) QD,1.5 log10
same,Peak individual viral load drop,[2]; 400 mg Formula (IIa) QD,1.9 log10
same,IC50,"[3]; five selected patient samples with NS5A mutations (Example 4, FIGS. 18A-18E), read-out: IC50 range",≥ 1 nM
same,IC50,"[3]; genotype 3, genotype 3, treatment experienced group, mean±sem",22 nM
same,IC50,"[3]; genotype 3, genotype 3, treatment naive group, mean±sem, read-out: IC50",26 ± 7 nM
same,IC50,"[3]; patient sample post-peg/RBV treatment, read-out: IC50",455 nM
same,IC50,"[3]; patient sample pre-peg/RBV treatment, read-out: IC50",450 nM
same,IC50,"[3]; sample from patient 7 prior to administration of telaprevir, FIG. 14A, read-out: IC50",450 nM
same,IC50,"[3]; sample from patient 22, repeated relapse after combination interferon and ribavirin therapy (IFN resistant), FIG. 12A, read-out: IC50",24 nM
same,IC50,"[3]; sample from patient 23, relapse of HCV infection (IFN resistant), FIG. 12B, read-out: IC50",5.46 nM
same,IC50,"[3]; sample from patient 25 after treatment with telaprevir, FIG. 14B, read-out: IC50",6.4 nM
same,IC50,"[3]; serum sample from patient 30, sofosbuvir resistant strain, FIG. 13C, read-out: IC50",4 nM
same,IC50,"[3]; serum samples from 30 patients (Example 3), read-out: IC50 range for all patient samples",1 to 455 nM
same,genotype coverage of anti-HCV activity,"[3]; patient sera of HCV genotypes G1, G3, G2, G4 or G6",pan-genotypic activity
same,sensitivity of sample to treatment,"[3]; post-treatment sample of patient who relapsed after sofosbuvir-containing therapy, FIG. 24C",sensitive

# Reference: patent publication US20190046552A1, “COMPOSITIONS AND METHODS FOR THE TREATMENT OF HCV INFECTION” (priority 2015, published 2019)
